Laboratory results: the NIST ThermoML archive (doi:10.1016/j.fluid.2012.03.021)
± gives the expanded uncertainty stated by the source.

Settings: Liquid; for Critical pressure: Direct measurement; for Critical temperature: Pulse Heating

| Critical pressure | Critical temperature | SMILES |
| --- | --- | --- |
| 3280 ± 260 kPa | 847 ± 26 K | CC(=O)c1ccc[cH-]1.[Fe+2].c1cc[cH-]c1 [acetylferrocene] |
| 1590 ± 120 kPa | 886 ± 26 K | O=C(c1ccccc1)c1ccc[cH-]1.[Fe+2].c1cc[cH-]c1 [benzoylferrocene] |
| 2180 ± 180 kPa | 784 ± 24 K | CCCC[c-]1cccc1.[Fe+2].c1cc[cH-]c1 [butylferrocene] |
| 3610 ± 200 kPa | 785 ± 16 K | [CH]1C=CC=C1.[CH]1C=CC=C1.[Fe] [ferrocene] |
